Test results published in ChEMBL document CHEMBL1134754, “Influence of the terminal amide fragment geometry in some 3-arylideneindolin-2(1H)-ones on their 5-HT1A/5-HT2A receptor activity” (Bioorg Med Chem Lett, 2001).

Experiments:
[1] = biological target: 5-hydroxytryptamine receptor 2A (Rattus norvegicus, UniProt P14842); assay: Displacement of [3H]- Ketanserin from rat cortex 5-hydroxytryptamine 2A receptor
Mus musculus = assay: In vivo effective dose required for inhibiting (+/-)-DOI-induced (2.5 mg/kg, ip) twitches in mice; assay type: functional
[2] = biological target: T1, 5-hydroxytryptamine receptor 1A (Rattus norvegicus, UniProt P19327); assay: Displacement of [3H]8-OH-DPAT from 5-hydroxytryptamine 1A receptor of rat hippocampus; assay type: tissue-based
T1 sequence (P19327 whole entry): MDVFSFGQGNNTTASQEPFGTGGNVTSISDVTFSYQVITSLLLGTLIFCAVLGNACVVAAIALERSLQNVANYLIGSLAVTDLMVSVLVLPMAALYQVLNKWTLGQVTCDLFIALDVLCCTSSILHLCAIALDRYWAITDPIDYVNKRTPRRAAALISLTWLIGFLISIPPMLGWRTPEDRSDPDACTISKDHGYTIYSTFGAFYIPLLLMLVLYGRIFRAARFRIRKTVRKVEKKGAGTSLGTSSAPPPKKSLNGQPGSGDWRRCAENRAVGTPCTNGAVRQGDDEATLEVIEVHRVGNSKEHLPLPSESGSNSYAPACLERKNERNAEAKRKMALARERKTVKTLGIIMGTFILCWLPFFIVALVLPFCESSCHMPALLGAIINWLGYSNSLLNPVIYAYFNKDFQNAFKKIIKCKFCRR

Rattus norvegicus [3] = assay: Dose dependendt inhibition of 8-OH-DPAT(1 mg/kg, sc) induced lower lip retraction(LLR) in rats pre-administered 20 mg/kg ip dose; assay type: functional; conditions: route intraperitoneal
Rattus norvegicus [4] = assay: Dose dependendt inhibition of 8-OH-DPAT(1 mg/kg, sc) induced lower lip retraction(LLR) in rats pre-administered 10 mg/kg ip dose; assay type: functional; conditions: route intraperitoneal
Rattus norvegicus [5] = assay: Tested for induction of lower lip retraction(LLR) in rats at 10 mg/kg, ip, given 15 min before the test; assay type: functional
Rattus norvegicus [6] = assay: Tested for induction of lower lip retraction(LLR) in rats at 20 mg/kg, ip, given 15 min before the test; assay type: functional
Rattus norvegicus [7] = assay: Tested for induction of lower lip retraction(LLR) in rats at 20 mg/kg.; assay type: functional

Chain of 5-hydroxytryptamine receptor 2A (P14842 whole entry): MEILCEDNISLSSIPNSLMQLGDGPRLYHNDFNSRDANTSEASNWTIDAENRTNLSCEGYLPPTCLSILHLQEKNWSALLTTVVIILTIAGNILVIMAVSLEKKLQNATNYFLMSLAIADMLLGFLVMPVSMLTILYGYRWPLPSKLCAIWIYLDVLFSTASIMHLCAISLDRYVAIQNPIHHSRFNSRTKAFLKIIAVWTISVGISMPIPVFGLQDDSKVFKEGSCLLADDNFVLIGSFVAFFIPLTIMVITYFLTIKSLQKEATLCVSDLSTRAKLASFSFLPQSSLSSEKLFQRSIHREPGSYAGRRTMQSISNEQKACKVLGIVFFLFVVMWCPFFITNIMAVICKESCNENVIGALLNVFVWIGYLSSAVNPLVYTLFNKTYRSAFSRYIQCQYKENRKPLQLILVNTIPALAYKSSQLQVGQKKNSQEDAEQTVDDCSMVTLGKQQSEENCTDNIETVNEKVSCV

| Compound | Ki [1] | ED50 (Mus musculus) | Ki [2] | Incidence_count (Rattus norvegicus [3]) | Incidence_count (Rattus norvegicus [4]) | Induction (Rattus norvegicus [5]) | Induction (Rattus norvegicus [6]) | Induction (Rattus norvegicus [7]) |
| --- | --- | --- | --- | --- | --- | --- | --- | --- |
| O=C1Cc2ccccc2N1CCCN1CCN(c2cccc(Cl)c2)CC1 | 25 nM | 6.5 mg/kg | 29 nM | – | – | – | – | – |
| O=C1/C(=C/c2ccc(Cl)cc2)c2ccccc2N1CCCN1CCN(c2cccc(Cl)c2)CC1 | 32 nM | 20 mg/kg | 1610 nM | – | – | – | – | – |
| O=C1/C(=C\c2cccs2)c2ccccc2N1CCCN1CCN(c2cccc(Cl)c2)CC1 | 138 nM | – | 20500 nM | – | – | – | – | – |
| O=C1/C(=C\c2cccnc2)c2ccccc2N1CCCN1CCN(c2cccc(Cl)c2)CC1 | 20 nM | 27 mg/kg | 57 nM | 0.9 | 2.3 | 0.1 | 0.1 | – |
| O=C1/C(=C\c2ccc(Cl)cc2)c2ccccc2N1CCCN1CCN(c2cccc(Cl)c2)CC1 | 366 nM | 15 mg/kg | 204 nM | – | – | – | – | – |
| O=C1/C(=C/c2ccccc2)c2ccccc2N1CCCN1CCN(c2cccc(Cl)c2)CC1 | 38 nM | 28.5 mg/kg | 399 nM | – | – | – | – | – |
| COc1ccc(/C=C2\C(=O)N(CCCN3CCN(c4cccc(Cl)c4)CC3)c3ccccc32)cc1 | 36 nM | 16 mg/kg | – | – | – | – | – | – |
| O=C1/C(=C/c2cccs2)c2ccccc2N1CCCN1CCN(c2cccc(Cl)c2)CC1 | 64 nM | 16 mg/kg | > 50000 nM | – | – | – | – | – |
| COc1ccc(/C=C2/C(=O)N(CCCN3CCN(c4cccc(Cl)c4)CC3)c3ccccc32)cc1 | 20 nM | 28.5 mg/kg | 538 nM | – | – | – | – | – |
| O=C1/C(=C\c2ccccc2)c2ccccc2N1CCCN1CCN(c2cccc(Cl)c2)CC1 | 56 nM | 27.5 mg/kg | 54 nM | 0.8 | 1.9 | 0.1 | – | 0.2 |
| O=C1/C(=C/c2cccnc2)c2ccccc2N1CCCN1CCN(c2cccc(Cl)c2)CC1 | 7 nM | 9.5 mg/kg | 101 nM | – | – | – | – | – |
| O=C(c1ccc(F)cc1)C1CCN(CCn2c(=O)[nH]c3ccccc3c2=O)CC1 [KETANSERIN] | – | 0.12 mg/kg | 1930 nM | – | – | – | – | – |
